# Results taken from patent publication US12377100B2 (GILEAD SCIENCES, INC., priority 2015, dated 2025).
# How the values were obtained:
# [1] = tested on: IFNα; assay: PBMC cytokine profiling assay, IFNα induction; assay type: cell-based; settings: human PBMCs, 24 hours incubation
# In short: (§1)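 Cryopreserved healthy-donor human PBMCs (100k cells/well) were exposed for 24 h at 37 °C to a 10-point half-log compound series in 0.5% final DMSO. Secreted cytokines in the conditioned medium were quantified by MSD electrochemiluminescence, with TNFα samples diluted 1:9. AC50 was fitted by non-linear regression on percent activation normalised to plate controls.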
# [2] = MT-4 cytotoxicity assay, Cell Titer Glo, 5 days; assay type: cell-based, human; settings: human, MT-4 cells; MT-4, five days incubation, intracellular ATP; read-out: CC50 (MT4)
# Description: (§2) To assess potential off-target toxicity of certain compounds disclosed herein, the in vitro cytotoxicity of those compounds was profiled using a panel of 5 cell lines with various tissue origins. Compound cytotoxicity was examined in hepatoma-derived Huh-7 and HepG2 cells, prostate carcinoma-derived PC-3 cells, lymphoma derived MT-4 cells and a normal diploid lung cell line MRC-5. HepG2 and PC-3 cells used were adapted to grow in glucose-free galactose-containing medium. These cells have a relatively higher sensitivity to inhibitors of mitochondrial oxidative phosphorylation compared to the same cells maintained in standard glucose-containing culture medium (Marroquin et al., Toxicol. Sci. 2007; 97 (2):539-47). Cell viability was determined by measuring intracellular ATP levels following five days of continuous incubation with test compounds.
# (§3) The human hepatoma Huh-7 cell line was obtained from ReBLikon GmbH (Mainz, Germany) {20879}. The MT-4 cell line (HTLV-1 transformed, human T lymphoblastoid cells) was obtained from the NIH AIDS Reagent program (Bathesda, MD). The human hepatoblastoma cell line HepG2, human prostate carcinoma cell line PC-3, and normal fetal lung derived MRC-5 cells were obtained from the American Type Culture Collection (ATCC, Manassas, VA).
# (§4) Huh-7 cells were maintained in Dulbecco's Modified Eagle Medium (DMEM) supplemented with 10% fetal bovine serum (FBS, Hyclone, Logan, UT), 1% non-essential amino acids (Gibco, Carlsbad, CA). PC-3 and HepG2 cells were adapted to grow in 0.2% galactose-containing, glucose-free Dulbecco's Modified Eagle Medium (DMEM) supplemented with 10% fetal bovine serum (FBS, Hyclone, Logan, UT), 1% non-essential amino acids (Gibco, Carlsbad, CA), 1% Pyruvate (Cellgro), 1% Glutamax (Invitrogen, Carlsbad, CA). Galactose-adapted cells were maintained in the same culture medium. MRC-5 cells were maintained in Eagle's Minimum Essential Medium (EMEM) supplemented with 10% fetal bovine serum (FBS, Hyclone, Logan, UT). MT-4 cells were maintained in RPMI-1640 supplemented with 10% fetal bovine serum (FBS, Hyclone, Logan, UT). All cell culture media were also supplemented with 100 Units/mL penicillin, 100 μg/mL streptomycin (Gibco).
# (§5) For the MT-4 cytotoxicity assay, 0.4 μL of serially diluted compounds were added to 40 μl of cell maintenance media in 384-well black, solid bottom plate using a Biomek FX workstation (Beckman Coulter). Two thousand cells in 35 μL were added to each well using a Biotek uFlow Workstation (Biotek). Each assay plate contained 10 μM Puromycin (final concentration) and 0.5% DMSO in RPMI-1640 as positive and negative controls, respectively. Assay plates were incubated for five days at 37° C. in an incubator set at 5% CO2 and 90% humidity. After five days, 22 μL of Cell Titer Glo reagent (Promega) was added to the assay plates with a Biotek uFlow Workstation. Plates were subsequently placed on a Perkin Elmer Envision Plate Reader for five minutes before the luminescence signal was read.
# (§6) CC50 values were defined as the compound concentration that caused a 50% decrease in luminescence signal, and were calculated by non-linear regression using Pipeline Pilot software by applying a four parameter fit equation (Accelrys, San Diego, CA). Individual CC50 values are listed as μM concentrations.
# [3] = Cytotoxicity assay, galactose-adapted HepG2 cells, Cell Titer Glo, 5 days; assay type: cell-based; settings: human, galactose-adapted HepG2, five days incubation, intracellular ATP, read-out: CC50 GALHEPG2 CTG 5D
# Description: as §2, §3, §4
# (§7) Using a Biotek uFlow Workstation (Biotek, Winooski, VT), 1500 HepG2, 1500 PC-3, 500 Huh7 or 1500 MRC-5 cells in 90 μL of culture media were dispensed into each well of black polystyrene tissue culture-treated 384-well plates. Plated cells were incubated for 24 hours in an incubator at 37° C., 5% CO2 and 90% humidity. Compound serial dilutions were performed in 100% DMSO in 384-well polypropylene (high recovery) plates on a Biomek FX Workstation (Beckman Coulter, Fullerton, CA). After 3-fold serial dilutions, 0.4 μL of compounds were transferred into 384-well plates containing cells using a Velocity 11 system equipped with a Bravo 384-well pipettor. The DMSO concentration in the final assay plates was 0.44% (v/v). Cells were incubated with compound(s) for five days at 37° C. Puromycin (44 μM final concentration) and DMSO (0.44%, v/v) were used as a positive and negative controls, respectively
# (§8) At the end of the incubation period the cytotoxicity assay was performed as follows: Media from 384-well cell culture plates were aspirated with a Biotek EL405 plate-washer (Biotek) and cells were washed with 100 μL PBS once. Twenty microliters of Cell Titer Glo (Promega, Madison, WI) was added to each well of the plates with a Biotek uFlow liquid dispenser. Plates were incubated for 15 minutes at room temperature before luminescence was measured with a Perkin Elmer Envision Plate Reader (Perkin Elmer, Waltham, MA).
# as §6
# [4] = tested on: Huh-7 cells; assay: Cytotoxicity assay, Huh-7 cells, Cell Titer Glo, 5 days; assay type: cell-based, human; settings: Huh-7, five days incubation, intracellular ATP; read-out: CC50 HUH7 CTG 5D
# Description: as §2, §3, §4, §7, §8, §6
# [5] = tested on: TNFα; assay: PBMC cytokine profiling assay, TNFα induction; assay type: cell-based; settings: human PBMCs, 24 hours incubation
# In short: as §1
# [6] = tested on: MRC-5 cells; assay: Cytotoxicity assay, MRC-5 cells, Cell Titer Glo, 5 days; assay type: cell-based, human; settings: MRC-5, five days incubation, intracellular ATP; read-out: CC50 MRC5 CTG 5D
# Description: as §2, §3, §4, §7, §8, §6
# [7] = tested on: IL12p40; assay: PBMC cytokine profiling assay, IL12-p40 induction; assay type: cell-based; settings: human PBMCs, 24 hours incubation
# In short: as §1
# [8] = Cytotoxicity assay, Huh-7 cells, Cell Titer Glo, 5 days; assay type: cell-based, human; settings: human, Huh-7 cells; Huh-7, five days incubation, intracellular ATP; read-out: CC50 HUH7 CTG 5D
# Description: as §2, §3, §4, §7, §8, §6
# [9] = Cytotoxicity assay, galactose-adapted PC-3 cells, Cell Titer Glo, 5 days; assay type: cell-based; settings: human, galactose-adapted PC-3, five days incubation, intracellular ATP, read-out: CC50 GALPC3 CTG 5D
# Description: as §2, §3
# as §4, with “(Gibco). […]” for “(Gibco).”
# as §8, with “Twenty microliters of Cell Titer Glo (Promega, Madison, WI) was added to each well of the plates with a Biotek uFlow liquid dispenser.” left out, “MA). […]” for “MA).”
# [10] = Cytotoxicity assay, MRC-5 cells, Cell Titer Glo, 5 days; assay type: cell-based, human; settings: human, MRC-5 cells; MRC-5, five days incubation, intracellular ATP; read-out: CC50 MRC5 CTG 5D
# Description: as §2, §3, §4, §7, §8, §6
# [11] = tested on: MT-4 cells; assay: MT-4 cytotoxicity assay, Cell Titer Glo, 5 days; assay type: cell-based, human; settings: MT-4, five days incubation, intracellular ATP; read-out: CC50 (MT4)
# Description: as §2, §3, §4, §5, §6
structure (smiles),measurement,setting,value
"CCCC[C@](C)(CNC(C)=O)Nc1nc(N)nc2cc(F)cnc12 [Example 101, (R)—N-(2-((2-amino-7-fluoropyrido[3,2-d]pyrimidin-4-yl)amino)-2-methylhexyl)acetamide]",AC50,"[1]; Homo sapiens, PBMC, 24 h",> 50 µM
same,CC50 at 5 days,[2],50 µM
same,CC50 at 5 days,[3],44.4 µM
same,CC50,[4],44.4 µM
same,AC50,"[5]; Homo sapiens, PBMC, 24 h",0.1 µM
same,CC50,[6],44.4 µM
same,AC50,"[7]; Homo sapiens, PBMC, 24 h",0.11 µM
"CCCC[C@](C)(CO)Nc1nc(N)nc2cccnc12 [Example 59, (R)-2-((2-aminopyrido[3,2-d]pyrimidin-4-yl)amino)-2-methylhexan-1-ol]",AC50,"[1]; Homo sapiens, PBMC, 24 h",15 µM
same,CC50 at 5 days,[2],31.4 µM
same,CC50 at 5 days,[3],8.88 µM
same,CC50 at 5 days,[8],35.4 µM
same,CC50 at 5 days,[9],5.2 µM
same,AC50,"[5]; Homo sapiens, PBMC, 24 h",0.18 µM
same,CC50 at 5 days,[10],40.3 µM
same,AC50,"[7]; Homo sapiens, PBMC, 24 h",0.17 µM
"CCC[C@@H](CO)Nc1nc(N)nc2cc(F)c(F)cc12 [X, reference compound]",AC50,"[1]; Homo sapiens, PBMC, 24 h",7.1 µM
same,CC50 at 5 days,[2],53.8 µM
same,CC50 at 5 days,[3],7.85 µM
same,CC50 at 5 days,[8],16.9 µM
same,CC50 at 5 days,[9],6.79 µM
same,AC50,"[5]; Homo sapiens, PBMC, 24 h",1.2 µM
same,CC50 at 5 days,[10],20.9 µM
same,AC50,"[7]; Homo sapiens, PBMC, 24 h",0.97 µM
"CCCC[C@](C)(CNC(C)=O)Nc1nc(N)nc2cc(Cl)cnc12 [Example 65, (R)—N-(2-((2-amino-7-chloropyrido[3,2-d]pyrimidin-4-yl)amino)-2-methylhexyl)acetamide]",AC50,"[1]; Homo sapiens, PBMC, 24 h",> 50 µM
same,CC50 at 5 days,[2],50 µM
same,CC50 at 5 days,[3],44.4 µM
same,CC50,[4],44.4 µM
same,AC50,"[5]; Homo sapiens, PBMC, 24 h",0.11 µM
same,CC50,[6],44.4 µM
same,AC50,"[7]; Homo sapiens, PBMC, 24 h",0.09 µM
"CCCC[C@](CO)(Nc1nc(N)nc2cccnc12)C(F)(F)F [Example 93, (R)-2-((2-aminopyrido[3,2-d]pyrimidin-4-yl)amino)-2-(trifluoromethyl)hexan-1-ol]",AC50,"[1]; Homo sapiens, PBMC, 24 h",> 50 µM
same,CC50,[4],44.4 µM
same,AC50,"[5]; Homo sapiens, PBMC, 24 h",0.44 µM
same,CC50 at 5 days,[10],38.8 µM
same,AC50,"[7]; Homo sapiens, PBMC, 24 h",0.4 µM
"CCCC[C@H](CO)Nc1nc(N)nc2cccnc12 [Example 15, (R)-2-((2-aminopyrido[3,2-d]pyrimidin-4-yl)amino)hexan-1-ol]",AC50,"[1]; Homo sapiens, PBMC, 24 h",> 200 µM
same,CC50 at 5 days,[8],10.7 µM
same,AC50,"[5]; Homo sapiens, PBMC, 24 h",1.6 µM
same,AC50,"[7]; Homo sapiens, PBMC, 24 h",1.2 µM
CCCC[C@](C)(CNC(C)=O)Nc1nc(N)nc2c(C)ccnc12 [Example 62],AC50,[1]; PBMC,> 50 µM
same,CC50,[11],19.2 µM
same,CC50 at 5 days,[3],44.4 µM
same,CC50,[4],44.4 µM
same,AC50,[5]; PBMC,1 µM
same,CC50,[6],44.4 µM
same,AC50,[7]; PBMC,0.91 µM
"CCCC[C@@](C)(Nc1nc(N)nc2cccnc12)C(C)O (single isomer, unassigned) [Example 97]",AC50,[1],26 µM
same,CC50 at 5 days,[2],50 µM
same,CC50,[4],44.4 µM
same,AC50,[5],0.14 µM
same,CC50,[6],44.4 µM
same,AC50,[7],0.13 µM
"CCCC[C@@](C)(CO)Nc1nc(N)nc2cc(F)cnc12 [Example 64, (S)-2-((2-amino-7-fluoropyrido[3,2-d]pyrimidin-4-yl)amino)-2-methylhexan-1-ol]",AC50,"[1]; Homo sapiens, PBMC, 24 h",37.9 µM
same,CC50 at 5 days,[2],0.79 µM
same,CC50 at 5 days,[9],1.55 µM
same,AC50,"[5]; Homo sapiens, PBMC, 24 h",3.1 µM
same,AC50,"[7]; Homo sapiens, PBMC, 24 h",3.2 µM
"CCCC[C@H](CO)Nc1nc(N)nc2ccsc12 [Y, reference compound]",AC50,"[1]; Homo sapiens, PBMC, 24 h",> 50 µM
same,CC50 at 5 days,[2],1.42 µM
same,CC50 at 5 days,[3],0.19 µM
same,CC50 at 5 days,[8],2.31 µM
same,CC50 at 5 days,[9],0.18 µM
same,AC50,"[5]; Homo sapiens, PBMC, 24 h",11.2 µM
same,CC50 at 5 days,[10],0.95 µM
same,AC50,"[7]; Homo sapiens, PBMC, 24 h",13 µM
